Test results: patent US9890152B2 (Genentech, Inc., priority 2012, dated 2018)
Counter-ions that a name gives are not always drawn.

Target: T1, phosphor-EGFR in H1975(L585R/T790M) mutant EGFR expressing cells (Homo sapiens, UniProt P00533, L858R/T790M)
T1 construct: host or cells: NCI-H1975
Test: H1975 pEGFR MSD cellular assay
Type: cell-based
Conditions: NCI-H1975 cells, serum starved, 1 hour compound incubation, pEGFR Tyr1068 MSD
Procedure: H1975 pEGFR MSD Cellular Assays Background:
These assays are intended for determining cellular. […] (Meso Scale Discovery Catalog# N31CB-1).
All cell culture reagents were purchased from Invitrogen/Gibco. Cells are cultured at 37° C. at 5% CO2 and split as recommended by ATCC.
Cell Plating and Serum Starvation:
After six hours, culture medium is aspirated and replaced with serum-free culture medium. Cells are then incubated with the serum-free medium overnight at 37° C. and 5% CO2.
The following day, test compounds are serially diluted in dimethyl sulfoxide (DMSO) and added to cells in serum free medium (final DMSO concentration 0.5%). Assay plates are then incubated for 1 hour at 37° C. and 5% CO2. Following 1 hour of compound incubation cells are then lysed and processed as per the MSD pEGFR assay kit protocol. Cell lysates are added to assay plates pre-coated with antibodies against phosphorylated EGFR. Phosphorylated EGFR in samples are allowed to bind to the capture antibodies overnight at 4° C. The detection antibody (anti-total EGFR, labeled with an electrochemiluminescent SULFO-TAG) is added to the bound lysate and incubated for 1 hour at room temperature. The MSD Read Buffer is added such that when a voltage is applied to the plate electrodes, the labels bound to the electrode surface emit light. The MSD Sector Instrument measures the intensity of the light, and quantitatively measures the amount of phosphorylated-EGFR in the sample. Percent inhibition of EGFR phosphorylation by varying concentrations of test compounds is calculated relative to untreated controls. EC50 values are calculated using the 4 parameter logistic nonlinear regression dose-response model.

T1 sequence (P00533 25-1210 T790M/L858R): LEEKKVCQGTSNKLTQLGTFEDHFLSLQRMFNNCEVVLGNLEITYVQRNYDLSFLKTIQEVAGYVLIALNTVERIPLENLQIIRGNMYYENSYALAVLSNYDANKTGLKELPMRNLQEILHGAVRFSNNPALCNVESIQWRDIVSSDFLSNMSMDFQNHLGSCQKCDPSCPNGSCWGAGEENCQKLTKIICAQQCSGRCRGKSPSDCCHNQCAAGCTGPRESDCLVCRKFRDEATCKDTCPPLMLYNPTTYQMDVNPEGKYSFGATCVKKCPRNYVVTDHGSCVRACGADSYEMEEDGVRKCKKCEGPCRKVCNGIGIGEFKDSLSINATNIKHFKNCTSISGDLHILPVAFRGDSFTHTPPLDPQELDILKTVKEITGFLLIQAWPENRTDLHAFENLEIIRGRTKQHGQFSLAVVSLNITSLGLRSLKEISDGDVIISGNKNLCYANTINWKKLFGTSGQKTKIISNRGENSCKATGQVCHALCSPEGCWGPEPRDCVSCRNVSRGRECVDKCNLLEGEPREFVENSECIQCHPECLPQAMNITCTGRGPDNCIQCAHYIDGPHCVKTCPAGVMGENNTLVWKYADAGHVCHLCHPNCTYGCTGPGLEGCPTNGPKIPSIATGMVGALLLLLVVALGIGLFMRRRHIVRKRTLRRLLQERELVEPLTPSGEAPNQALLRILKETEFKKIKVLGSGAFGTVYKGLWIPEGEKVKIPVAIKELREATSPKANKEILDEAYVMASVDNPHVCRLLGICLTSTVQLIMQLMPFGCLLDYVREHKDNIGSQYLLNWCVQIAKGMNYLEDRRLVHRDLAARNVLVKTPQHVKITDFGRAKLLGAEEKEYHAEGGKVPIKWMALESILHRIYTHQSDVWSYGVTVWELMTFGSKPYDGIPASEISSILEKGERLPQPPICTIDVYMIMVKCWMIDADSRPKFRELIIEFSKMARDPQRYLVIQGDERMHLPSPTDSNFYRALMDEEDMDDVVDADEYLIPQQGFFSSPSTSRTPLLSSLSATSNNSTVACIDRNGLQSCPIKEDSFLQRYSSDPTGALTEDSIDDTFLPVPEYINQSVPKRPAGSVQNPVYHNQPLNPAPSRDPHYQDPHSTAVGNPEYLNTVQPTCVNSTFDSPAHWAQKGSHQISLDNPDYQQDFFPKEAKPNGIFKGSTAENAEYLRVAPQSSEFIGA

| SMILES | EC50 [nM] |
| --- | --- |
| COCC(C)(C)n1c(C)nc2cnc(Nc3ccnc(N4CCC(OC)CC4)n3)cc21 [Example 164, [1-(2-Methoxy-1,1-dimethylethyl)-2-methyl-1H-imidazo[4,5-c]pyridin-6-yl]-[2-(4-methoxypiperidin-1-yl)pyrimidin-4-yl]amine] | 4710 |
| CC(C)n1cc(C(N)=O)c2cnc(Nc3ccnc(-c4cnn(S(=O)(=O)C5CC5)c4)n3)cc21 [Example 51, 6-((2-(1-(Cyclopropylsulfonyl)-1H-pyrazol-4-yl)pyrimidin-4-yl)amino)-1-isopropyl-1H-pyrrolo[3,2-c]pyridine-3-carboxamide] | 181 |

Target: T2, EGFR del746-750 T790M (Homo sapiens, UniProt P00533, DEL746-750/T790M)
T2 construct: purchased Carna Biosciences 08-528
T2 sequence (P00533 with tags, fused parts or gaps DEL746-750/T790M limits assumed): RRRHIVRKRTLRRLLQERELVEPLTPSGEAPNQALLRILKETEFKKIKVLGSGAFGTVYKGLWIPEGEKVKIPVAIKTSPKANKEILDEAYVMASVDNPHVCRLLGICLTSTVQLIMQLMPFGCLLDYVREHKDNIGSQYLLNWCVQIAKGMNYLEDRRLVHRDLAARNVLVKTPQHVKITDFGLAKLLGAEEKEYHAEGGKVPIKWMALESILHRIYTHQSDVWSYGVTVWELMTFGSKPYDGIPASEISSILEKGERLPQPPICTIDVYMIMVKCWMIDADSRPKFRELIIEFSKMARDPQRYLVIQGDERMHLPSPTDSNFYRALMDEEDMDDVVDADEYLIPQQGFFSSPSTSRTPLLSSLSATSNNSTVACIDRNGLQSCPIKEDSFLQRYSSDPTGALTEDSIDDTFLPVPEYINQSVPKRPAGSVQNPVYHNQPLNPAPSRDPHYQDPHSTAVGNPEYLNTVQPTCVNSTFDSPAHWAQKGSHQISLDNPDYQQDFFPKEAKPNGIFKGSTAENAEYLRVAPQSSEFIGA
Test: EGFR del746-750 T790M biochemical assay (Caliper mobility shift)
Conditions: 5 μM ATP, 30 min, room temperature; apparent Ki (Morrison) converted by Cheng-Prusoff, Km of ATP 2.1 μM; read-out: EGFR(T790M/d746-750) Ki

| SMILES | Ki [nM] |
| --- | --- |
| CC(C)n1c(CO)nc2cnc(Nc3ccnc(C4=CCC(O)CC4)n3)cc21 (stereo not shown) [Example 624, 4-(4-((2-(hydroxymethyl)-1-isopropyl-1H-imidazo[4,5-c]pyridin-6-yl)amino)pyrimidin-2-yl)cyclohex-3-enol] | 67.8 |
| Cc1nc2cnc(Nc3ccnc(OCC(C)(C)S(C)(=O)=O)n3)cc2n1C(C)C [Example 656] | 214 |
| CC(C)n1cc(C(=O)NC2CCOCC2)c2cnc(Nc3ccnc(NCC(C)(C)S(C)(=O)=O)n3)cc21 [Example 664] | 5.68 |
| CC(C)n1c(CO)nc2cnc(Nc3ccnc(N4CC[C@H]([S+](C)[O-])[C@H](F)C4)n3)cc21 (relative stereo) [Example 623, {6-[2-(cis-3-Fluoro-4-methanesulfinylpiperidin-1-yl)pyrimidin-4-ylamino]-1-isopropyl-1H-imidazo[4,5-c]pyridin-2-yl}methanol] | 393 |
| CC[C@H](C)n1cc(C(=O)NC2CCOCC2)c2cnc(Nc3ccnc(N4CC[C@H](OC)[C@H](F)C4)n3)cc21 (single isomer, unassigned) [Example 340] | 3.33 |
| CNc1nc(C)c(-c2nccc(Nc3cc4c(cn3)nc(C)n4C(C)C)n2)s1 [Example 611, (1-Isopropyl-2-methyl-1H-imidazo[4,5-c]pyridin-6-yl)-[2-(4-methyl-2-methylaminothiazol-5-yl)pyrimidin-4-yl]amine] | 0.773 |
| Cc1nc2cnc(Nc3ccnc(N4CC[C@@H](O)C[C@H]4C)n3)cc2n1C(C)C [Example 601] | 50.5 |
| Cc1nc2cnc(Nc3ccnc(N4CCC5(CC4)OCCCO5)n3)cc2n1C(C)C [Example 648] | 219 |
| CC1CC1n1c(CO)nc2cnc(Nc3ccnc(-c4cnn(S(=O)(=O)C5CC5)c4)n3)cc21 (stereo not shown) [Example 698] | 7.02 |
| CC(C)n1c([C@H](C)O)nc2cnc(Nc3ccnc(-c4cnn(S(=O)(=O)C5CC5)c4)n3)cc21 [Example 562, (S)-1-{6-[2-(1-Cyclopropanesulfonyl-1H-pyrazol-4-yl)pyrimidin-4-ylamino]-1-isopropyl-1H-imidazo[4,5-c]pyridin-2-yl}ethanol] | 14 |
| CC(C)n1c(C(C)(C)O)nc2cnc(Nc3ccnc(-c4cnn(S(=O)(=O)C5CC5)c4)n3)cc21 [Example 563, 2-{6-[2-(1-Cyclopropanesulfonyl-1H-pyrazol-4-yl)pyrimidin-4-ylamino]-1-isopropyl-1H-imidazo[4,5-c]pyridin-2-yl} propan-2-ol] | 11.1 |
| CO[C@H]1CCN(c2nccc(Nc3cc4c(cn3)nc(CO)n4C(C)C)n2)C[C@H]1F [Example 655] | 60.8 |
| CC(n1cc(C(=O)NC2CCOCC2)c2cnc(Nc3ccnc(N4CC[C@@H](O)[C@@H](F)C4)n3)cc21)C(F)(F)F (single isomer, unassigned) [Example 639] | 15 |
| CCS(=O)(=O)n1cc(-c2nccc(Nc3cc4c(cn3)c(-c3cnn(CCS(C)(=O)=O)c3)cn4C(C)C)n2)cn1 [Example 392, N-(2-(1-(ethylsulfonyl)-1H-pyrazol-4-yl)pyrimidin-4-yl)-1-isopropyl-3-(1-(2-(methylsulfonyl)ethyl)-1H-pyrazol-4-yl)-1H-pyrrolo[3,2-c]pyridin-6-amine] | 1.41 |
| Cc1nc2cnc(Nc3ccnc(-c4cnn(S(C)(=O)=O)c4)n3)cc2n1C(C)C [Example 91, 1-isopropyl-2-methyl-N-(2-(1-(methylsulfonyl)-1H-pyrazol-4-yl)pyrimidin-4-yl)-1H-imidazo[4,5-c]pyridin-6-amine] | 3.5 |
| CO[C@H]1CCN(c2nccc(Nc3cc4c(cn3)nc([C@@H](C)O)n4[C@@H](C)C(F)(F)F)n2)C[C@H]1F [Example 288, (R)-1-[6-[2-((3R,4S)-3-Fluoro-4-methoxypiperidin-1-yl)-pyrimidin-4-ylamino]-1-((S)-2,2,2-trifluoro-1-methylethyl)-1H-imidazo[4,5-c]pyridin-2-yl]ethanol] | 4 |

| SMILES | Ki [nM] |
| --- | --- |
| Cc1nc2cnc(Nc3ccnc(N4CC[C@H](O)[C@H](F)C4)n3)cc2n1C(C)C (racemic) [Example 505, (±)-3-Fluoro-1-(4-((1-isopropyl-2-methyl-1H-imidazo [4,5-c]pyridin-6-yl)amino)pyrimidin-2-yl)piperidin-4-ol] | 42.8 |
| COC1CCN(c2nccc(Nc3cc4c(cn3)c(C(=O)NC3CCN(C)CC3)cn4C(C)C)n2)CC1 [Example 114, 1-isopropyl-6-((2-(4-methoxypiperidin-1-yl)pyrimidin-4-yl)amino)-N-(1-methylpiperidin-4-yl)-1H-pyrrolo[3,2-c]pyridine-3-carboxamide] | 2.1 |
| CC(C)n1cc(C(=O)NC2CCSCC2)c2cnc(Nc3ccnc(-c4cnn(S(=O)(=O)C5CC5)c4)n3)cc21 [Example 458, 6-(2-(1-(cyclopropylsulfonyl)-1H-pyrazol-4-yl)pyrimidin-4-ylamino)-1-isopropyl-N-(tetrahydro-2H-thiopyran-4-yl)-1H-pyrrolo[3,2-c]pyridine-3-carboxamide] | 1.35 |
| C[C@H](n1c([C@@H](C)O)nc2cnc(Nc3ccnc(N4CCC(S(C)(=O)=O)CC4)n3)cc21)C(F)(F)F [Example 662] | 68.4 |
| Cc1nc2cnc(Nc3ccnc(N4CCC(S(C)(=O)=O)CC4)n3)cc2n1C(C)C [Example 545, (1-Isopropyl-2-methyl-1H-imidazo[4,5-c]pyridin-6-yl)-[2-(4-methanesulfonylpiperidin-1-yl)pyrimidin-4-yl]amine] | 501 |
| COC1CCN(c2nccc(Nc3cc4c(cn3)nc(C)n4C(C)(C)C)n2)CC1 [Example 163, (1-tert-butyl-2-methyl-1H-imidazo[4,5-c]pyridin-6-yl)-[2-(4-methoxypiperidin-1-yl)pyrimidin-4-yl]amine] | 14.9 |
| Cc1nc2cnc(Nc3ccnc(N4CC[C@@H](C#N)C4)n3)cc2n1C(C)C [Example 678] | 200 |
| C[C@H](O)c1nc2cnc(Nc3ccnc(N4CC[C@@H](O)[C@@H](F)C4)n3)cc2n1[C@@H](C)C(F)(F)F [Example 685] | 26.6 |
| CC(C)n1cnc2cnc(Nc3ccnc(N4CCc5[nH]ncc5C4)n3)cc21 [Example 12, (1-Isopropyl-1H-imidazo[4,5-c]pyridin-6-yl)-[2-(1,4,6,7-tetrahydropyrazolo[4,3-c]pyridin-5-yl)pyrimidin-4-yl]amine] | 19.2 |
| Cc1n[nH]cc1-c1nccc(Nc2cc3c(cn2)nc(C)n3C(C)C)n1 [Example 399, 1-isopropyl-2-methyl-N-(2-(3-methyl-1H-pyrazol-4-yl)pyrimidin-4-yl)-1H-imidazo[4,5-c]pyridin-6-amine] | 14.1 |
| CC(C)n1cnc2cnc(Nc3ccnc(N4CCC5(CCCO5)CC4)n3)cc21 [Example 141, (1-Isopropyl-1H-imidazo[4,5-c]pyridin-6-yl)-[2-(1-oxa-8-azaspiro[4.5]dec-8-yl)pyrimidin-4-yl]amine formate salt] | 55.5 |
| Cc1nc2cnc(Nc3ccnc(N4CC[C@@H](S(C)(=O)=O)[C@H](F)C4)n3)cc2n1C(C)C (racemic) [Example 616, [2-(±)-(trans-3-Fluoro-4-methanesulfonylpiperidin-1-yl)pyrimidin-4-yl]-(1-isopropyl-2-methyl-1H-imidazo[4,5-c]pyridin-6-yl)amine] | 483 |
| CCC(C)n1cc(C(=O)NCC(F)(F)F)c2cnc(Nc3ccnc(-c4cnn(S(=O)(=O)C5CC5)c4)n3)cc21 (stereo not shown) [Example 704] | 3.35 |
| CC(C)n1c(CO)nc2cnc(Nc3ccnc(N4CC[C@H](O)[C@@](C)(F)C4)n3)cc21 [Example 702] | 239 |
| CC(C)n1c(CO)nc2cnc(Nc3ccnc(N4CC[C@](C)(O)[C@H](F)C4)n3)cc21 (racemic) [Example 619, (3RS,4SR)-3-Fluoro-1-[4-(2-hydroxymethyl-1-isopropyl-1H-imidazo[4,5-c]pyridin-6-ylamino)pyrimidin-2-yl]-4-methylpiperidin-4-ol] | 146 |
| CO[C@@H]1CCN(c2nccc(Nc3cc4c(cn3)nc([C@@H](C)O)n4[C@@H](C)C(F)(F)F)n2)C[C@@H]1F [Example 290, (R)-1-[6-[2-((3S,4R)-3-Fluoro-4-methoxypiperidin-1-yl)-pyrimidin-4-ylamino]-1-((S)-2,2,2-trifluoro-1-methylethyl)-1H-imidazo[4,5-c]pyridin-2-yl]ethanol] | 4.65 |
